Measurements taken from US9730934B2, “Quinazoline derivatives substituted by aniline, preparation method and use thereof” (XUANZHU PHARMA CO., LTD., priority 2010, dated 2017).
Counter-ions that a name gives are not always drawn.

What was measured:
Assay in all cases: In vitro enzyme inhibitory activity (Caliper mobility shift, FAM labeled peptide)
Assay type in all cases: biochemical
Conditions in all cases: 28° C., 1 h reaction
HER2 = HER2 (Homo sapiens (Human), UniProt P04626)
Method: (§1) In Vitro Enzyme Inhibitory Activity of the Present Compounds
HER2: human epidermal growth factor receptor 2 (Carna);
(§2) 1. Formulating the agents to be used in the assay
(§3) (6) 5-fold compound solutions (using 100% DMSO to formulate 50-fold compound solutions having different concentration gradients, and diluting with water by 10 times to obtain 5-fold compound solutions having different concentration gradients);
(§4) 2. Adding 5 μL of a 5-fold compound solution to a 384-well plate;
(§5) 3. Adding 10 μL of a 2.5-fold kinase solution to incubate for 10 min;
(§6) 4. Then adding 10 μL of a 2.5-fold peptide solution, and reacting at 28° C. for 1 h; and
(§7) 5. Finally, adding 25 μL of stop buffer to terminate the reaction, and reading the data with Caliper.
(§8) 6. Curve fitting to obtain an IC50 value. The calculated inhibition ratio (%)=(the maximum conversion rate−the conversion rate)/(the maximum conversion rate−the minimum conversion rate)×100
(§9) The curve fitting was conducted with the Xlfit software to obtain IC50 values.

EGFR = EGFR (Homo sapiens (Human), UniProt P00533)
Sequence of EGFR (P00533 25-1210): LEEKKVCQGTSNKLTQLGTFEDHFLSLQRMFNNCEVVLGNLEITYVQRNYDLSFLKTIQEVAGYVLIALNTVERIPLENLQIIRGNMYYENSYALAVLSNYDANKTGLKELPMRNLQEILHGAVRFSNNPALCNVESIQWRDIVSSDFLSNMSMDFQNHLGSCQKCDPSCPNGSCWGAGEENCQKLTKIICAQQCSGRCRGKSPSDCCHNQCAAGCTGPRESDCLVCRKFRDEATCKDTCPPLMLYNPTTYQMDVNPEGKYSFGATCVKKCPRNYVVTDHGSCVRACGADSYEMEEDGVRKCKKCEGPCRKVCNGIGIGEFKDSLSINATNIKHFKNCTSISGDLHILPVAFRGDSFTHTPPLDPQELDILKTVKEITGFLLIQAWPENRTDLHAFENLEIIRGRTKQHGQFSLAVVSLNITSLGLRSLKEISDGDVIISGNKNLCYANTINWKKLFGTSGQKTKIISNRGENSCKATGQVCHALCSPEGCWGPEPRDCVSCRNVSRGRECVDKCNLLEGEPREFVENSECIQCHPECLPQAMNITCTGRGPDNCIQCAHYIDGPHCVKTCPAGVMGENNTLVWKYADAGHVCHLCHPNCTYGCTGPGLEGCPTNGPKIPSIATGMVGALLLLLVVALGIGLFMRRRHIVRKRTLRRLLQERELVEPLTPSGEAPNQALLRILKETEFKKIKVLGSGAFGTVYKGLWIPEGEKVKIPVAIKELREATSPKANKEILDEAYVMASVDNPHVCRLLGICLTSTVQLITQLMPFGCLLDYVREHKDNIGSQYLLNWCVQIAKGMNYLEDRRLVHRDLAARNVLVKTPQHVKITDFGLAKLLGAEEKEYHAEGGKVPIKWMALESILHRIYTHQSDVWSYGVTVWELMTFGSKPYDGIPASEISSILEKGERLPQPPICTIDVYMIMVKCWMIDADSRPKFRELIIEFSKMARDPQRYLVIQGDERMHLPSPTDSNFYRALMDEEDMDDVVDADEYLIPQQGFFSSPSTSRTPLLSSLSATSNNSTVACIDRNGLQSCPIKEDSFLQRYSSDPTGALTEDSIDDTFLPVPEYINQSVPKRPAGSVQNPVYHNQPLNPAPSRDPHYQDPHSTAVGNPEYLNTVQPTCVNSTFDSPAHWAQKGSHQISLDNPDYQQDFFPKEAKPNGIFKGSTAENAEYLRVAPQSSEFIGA
Method: as §1
EGFR: human epidermal growth factor receptor (Carna);
as §2, §3, §4, §5, §6, §7, §8, §9

HER4 = HER4 (Homo sapiens (Human), UniProt Q15303)
Sequence of HER4 (Q15303 26-1308): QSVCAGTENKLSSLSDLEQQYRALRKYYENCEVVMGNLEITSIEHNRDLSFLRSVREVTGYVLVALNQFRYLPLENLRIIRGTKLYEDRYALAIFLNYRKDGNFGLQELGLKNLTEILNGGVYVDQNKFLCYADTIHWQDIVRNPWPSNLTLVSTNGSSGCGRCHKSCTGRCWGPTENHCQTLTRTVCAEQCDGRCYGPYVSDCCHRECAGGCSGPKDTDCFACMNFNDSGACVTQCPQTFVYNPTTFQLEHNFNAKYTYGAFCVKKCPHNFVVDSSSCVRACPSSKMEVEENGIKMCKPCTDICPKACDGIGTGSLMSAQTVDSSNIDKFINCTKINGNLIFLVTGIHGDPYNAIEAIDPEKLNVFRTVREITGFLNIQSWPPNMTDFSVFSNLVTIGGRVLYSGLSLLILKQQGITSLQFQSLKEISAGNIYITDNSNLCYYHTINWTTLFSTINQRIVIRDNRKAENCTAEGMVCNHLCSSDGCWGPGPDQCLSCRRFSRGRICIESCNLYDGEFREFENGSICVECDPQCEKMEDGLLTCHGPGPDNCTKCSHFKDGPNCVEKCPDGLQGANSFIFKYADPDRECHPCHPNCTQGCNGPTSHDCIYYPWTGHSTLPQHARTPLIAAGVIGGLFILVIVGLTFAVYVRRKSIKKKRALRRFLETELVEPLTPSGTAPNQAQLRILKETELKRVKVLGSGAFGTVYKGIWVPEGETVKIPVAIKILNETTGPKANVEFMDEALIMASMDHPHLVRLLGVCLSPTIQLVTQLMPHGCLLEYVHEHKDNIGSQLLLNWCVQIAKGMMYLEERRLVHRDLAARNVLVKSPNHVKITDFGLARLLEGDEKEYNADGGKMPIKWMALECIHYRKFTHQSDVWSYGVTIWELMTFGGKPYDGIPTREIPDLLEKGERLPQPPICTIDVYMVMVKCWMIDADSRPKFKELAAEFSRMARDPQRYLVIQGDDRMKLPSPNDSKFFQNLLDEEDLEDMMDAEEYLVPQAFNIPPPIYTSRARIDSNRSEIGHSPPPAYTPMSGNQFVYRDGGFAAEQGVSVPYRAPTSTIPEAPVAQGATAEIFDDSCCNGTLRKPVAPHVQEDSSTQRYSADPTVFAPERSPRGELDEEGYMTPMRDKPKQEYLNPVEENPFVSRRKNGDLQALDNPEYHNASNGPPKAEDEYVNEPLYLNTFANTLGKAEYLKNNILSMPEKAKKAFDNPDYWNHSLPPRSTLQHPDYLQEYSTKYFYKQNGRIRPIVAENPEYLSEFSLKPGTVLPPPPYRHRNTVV
Method: as §1
HER4: human epidermal growth factor receptor 4 (Carna).
as §2, §3, §4, §5, §6, §7, §8, §9

Sequence of HER2 (P04626 23-1255): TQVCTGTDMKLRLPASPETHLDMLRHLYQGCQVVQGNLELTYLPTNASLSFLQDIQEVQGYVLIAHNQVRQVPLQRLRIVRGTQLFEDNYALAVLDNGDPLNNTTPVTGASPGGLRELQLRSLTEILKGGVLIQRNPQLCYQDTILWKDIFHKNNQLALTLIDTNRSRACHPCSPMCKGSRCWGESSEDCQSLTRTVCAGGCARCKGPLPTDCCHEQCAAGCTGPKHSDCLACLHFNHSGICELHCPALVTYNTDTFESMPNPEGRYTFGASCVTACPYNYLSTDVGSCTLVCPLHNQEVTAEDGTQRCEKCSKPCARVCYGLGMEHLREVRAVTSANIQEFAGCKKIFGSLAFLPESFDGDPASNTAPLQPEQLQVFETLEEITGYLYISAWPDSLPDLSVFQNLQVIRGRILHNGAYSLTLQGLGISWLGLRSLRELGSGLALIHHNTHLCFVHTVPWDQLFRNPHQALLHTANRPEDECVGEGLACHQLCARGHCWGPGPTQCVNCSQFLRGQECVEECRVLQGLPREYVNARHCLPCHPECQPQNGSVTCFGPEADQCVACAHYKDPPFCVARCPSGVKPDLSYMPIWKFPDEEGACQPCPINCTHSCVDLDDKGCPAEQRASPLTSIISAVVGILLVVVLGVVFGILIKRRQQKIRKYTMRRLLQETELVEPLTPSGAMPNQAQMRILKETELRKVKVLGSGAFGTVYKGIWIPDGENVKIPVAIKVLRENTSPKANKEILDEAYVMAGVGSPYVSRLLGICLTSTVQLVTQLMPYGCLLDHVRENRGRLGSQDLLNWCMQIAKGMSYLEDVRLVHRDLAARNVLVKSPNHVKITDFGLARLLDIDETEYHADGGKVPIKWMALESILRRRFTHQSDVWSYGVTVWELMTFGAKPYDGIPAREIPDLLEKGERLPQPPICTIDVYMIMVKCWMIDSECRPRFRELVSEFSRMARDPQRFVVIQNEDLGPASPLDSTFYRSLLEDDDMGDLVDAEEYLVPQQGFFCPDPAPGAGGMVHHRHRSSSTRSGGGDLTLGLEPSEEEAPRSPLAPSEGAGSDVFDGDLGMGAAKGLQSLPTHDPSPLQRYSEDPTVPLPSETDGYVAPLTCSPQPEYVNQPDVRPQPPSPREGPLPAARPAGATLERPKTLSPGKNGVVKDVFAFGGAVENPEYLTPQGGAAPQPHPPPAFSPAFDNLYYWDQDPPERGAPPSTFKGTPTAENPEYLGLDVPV

Structure (SMILES) | IC50 (HER2) | IC50 (EGFR) | IC50 (HER4)
C=CC(=O)Nc1cc2c(Nc3ccc(F)c(Cl)c3)ncnc2cc1OCCC1CC12CCN(C)CC2 (stereo not shown) [Compound 14, N-[4-(3-chloro-4-fluorophenylamino)-7-(2-(6-methyl-6-azaspiro[2.5]octan-1-yl)ethoxy)quinazolin-6-yl]-acrylamide] | 2.6 nM | 0.39 nM | 1.2 nM
C=CC(=O)Nc1cc2c(Nc3ccc(F)c(Cl)c3)ncnc2cc1OCCC1C2CCC1CN(C)C2 (stereo not shown) [Compound 11, N-[4-(3-chloro-4-fluorophenylamino)-7-(2-(3-methyl-3-azabicyclo[3.2.1]octan-8-yl)ethoxy)quinazolin-6-yl]-acrylamide] | 12 nM | 0.8 nM | 8.3 nM
C=CC(=O)Nc1cc2c(Nc3ccc(F)c(Cl)c3)ncnc2cc1OCC[C@@H]1[C@H]2CN(C)C[C@@H]12 [Compound 8] | 6.5 nM |  | 3.4 nM
C=CC(=O)Nc1cc2c(Nc3ccc(F)c(Cl)c3)ncnc2cc1OCC1COC2(CCN(C)CC2)C1 (stereo not shown) [Compound 6, N-[4-(3-chloro-4-fluorophenylamino)-7-((8-methyl-1-oxa-8-azaspiro[4.5]decan-3-yl)methoxy)quinazolin-6-yl]-acrylamide] | 7.1 nM | 1 nM | 1.4 nM
C=CC(=O)Nc1cc2c(Nc3ccc(F)c(Cl)c3)ncnc2cc1OCC1CCC2(CCN(C)CC2)O1 (stereo not shown) [Compound 7, N-[4-(3-chloro-4-fluorophenylamino)-7-(8-methyl-1-oxa-8-azaspiro[4.5]decan-2-ylmethoxy)quinazolin-6-yl]-acrylamide] | 4.3 nM |  | 1.7 nM
C=CC(=O)Nc1cc2c(Nc3ccc(F)c(Cl)c3)ncnc2cc1OCCC1CC2(CCN(C)CC2)C1 [Compound 19 hydrochloride, N-[4-(3-chloro-4-fluorophenylamino)-7-(2-(7-methyl-7-azaspiro[3.5]nonan-2-yl)ethoxy)quinazolin-6-yl]-acrylamide hydrochloride] | 3.1 nM | 0.56 nM | 3.7 nM
C=CC(=O)Nc1cc2c(Nc3ccc(F)c(Cl)c3)ncnc2cc1OCC1CC2(CCN(C)CC2)C1 [Compound 18, N-[4-(3-chloro-4-fluorophenylamino)-7-((7-methyl-7-azaspiro[3.5]nonan-2-yl)methoxy)quinazolin-6-yl]-acrylamide] | 6.5 nM | 1 nM | 1.9 nM
